In patent publication US20230310356A1, “COMPOSITION FOR PREVENTING, AMELIORATING, OR TREATING BRAIN DAMAGE AND MILD COGNITIVE IMPAIRMENT COMPRISING GLUTAMINE AS EFFECTIVE COMPONENT” (INDUSTRY-ACADEMIC COOPERATION FOUNDATION GYEONGSANG …, priority 2020, published 2023):

Experiments:
[1] = system: stratum pyramidale CA1 in hippocampus; test: Morphological change in hippocampus (Nissl staining, width of stratum pyramidale CA1) after CIS and glutamine supplementation; type: in vivo, mouse; details: STR+Gln vs STR; glutamine 150 mg/kg of feed
Experimental: Control (CTL) is a group which received normal diet (common diet with nutritional balance) without any stress, CTL+Gln group is a normal diet group supplemented with glutamine (150 mg/kg of feed) and without any stress, STR is a normal diet group under stress, and STR+Gln group is a normal diet group supplemented with glutamine (150 mg/kg of feed) under stress. The stress group (STR) was individually brought by force to a restrainer for 2 hours every day (i.e., between 2 PM and 4 PM) so that the animals are applied with chronic immobilization stress for 15 days. Any morphological change in hippocampus caused by the application of chronic immobilization stress and glutamine supplementation was determined by brain tissue staining of hippocampal region. Specifically, a section (i.e., brain tissue specimen) obtained after mounting for 5 minutes in 0.1% cresyl violet which has been dissolved in 0.2% acetic acid followed by air-drying was stained. Stained section was washed, subsequently immersed for 30 seconds in 80% (v/v) ethanol, again immersed for 30 seconds in 90% (v/v) ethanol, and again immersed twice for 30 seconds in 95% (v/v) ethanol. It was again immersed twice for 30 seconds in 100% (v/v) ethanol for dehydration. […]

[2] = system: ROS/RNS; test: ROS/RNS levels in plasma, PFC and hippocampus after CIS and glutamine supplementation; type: in vivo, mouse; details: STR+Gln vs STR
Experimental: Control (CTL) is a group which received normal diet (common diet with nutritional balance) without any stress, CTL+Gln group is a normal diet group supplemented with glutamine (150 mg/kg of feed) and without any stress, STR is a normal diet group under stress, and STR+Gln group is a normal diet group supplemented with glutamine (150 mg/kg of feed) under stress. The stress group (STR) was individually brought by force to a restrainer for 2 hours every day (i.e., between 2 PM and 4 PM) so that the animals are applied with chronic immobilization stress for 15 days. Fifty-one model animals of the second cohort, i.e., 12 to 13 animals per group, were not subjected to any behavior analysis but immediately sacrificed after completion of the last immobilization stress. Then, ROS/RNS levels in the plasma, PFC, and hippocampus were examined. Specifically, ROS/RNS was examined by using ROS/RNS assay kit (STA-347; Cell Biolabs, San Diego, CA, USA) and following the manufacturer's protocol. PFC and hippocampal tissues were subjected to tissue homogenization by using Bullert blender after adding glass beads to RIPA (radioimmunoprecipitation assay) buffer solution. After the ultrasonication for 2 minutes, they were centrifuged for 10 minutes at conditions including 4° C. and 12,000×g. Then, the measurement of fluorescence intensity using Tecan Infinite F200 PRO MicroReader was repeated 3 times.

[3] = system: p67phox; test: Double-IHC protein expression after CIS and glutamine supplementation: p67phox; type: in vivo, mouse; details: microglial cells in infralimbic cortex and hippocampal CA1 region; glutamine supplementation diet vs stress group
Experimental: Control (CTL) is a group which received normal diet (common diet with nutritional balance) without any stress, CTL+Gln group is a normal diet group supplemented with glutamine (150 mg/kg of feed) and without any stress, STR is a normal diet group under stress, and STR+Gln group is a normal diet group supplemented with glutamine (150 mg/kg of feed) under stress. The stress group (STR) was individually brought by force to a restrainer for 2 hours every day (i.e., between 2 PM and 4 PM) so that the animals are applied with chronic immobilization stress for 15 days. To determine the specific changes in the brain tissues after glutamine supplementation, double staining was carried out with a cell marker so that the proteins related to a change in ROS/RNS content (i.e., iNOS; nNOS; and p47phox and p67phox as a subunit of NOX) with cell markers are analyzed by double-IHC (immunohistochemistry). Twenty-four hours after applying the last stress, the mouse was anesthetized with avertin, and perfused with PBS (pH 7.4) and 4% formaldehyde. After that, the brain was removed, fixed, and cut to a thickness with 40 μm. […]

[4] = system: mouse with cognitive impairment caused by chronic immobilization stress (CIS); test: ORT-OLT after oral administration of glutamine following cognitive impairment caused by CIS; type: in vivo; details: 2 weeks CIS, then oral glutamine 45 mg/kg bodyweight/day for 1 week
Experimental: After the oral administration of glutamine following an occurrence of cognitive impairment that has been caused by chronic immobilization stress (CIS), the effect of treating cognitive impairment was examined. Two weeks after applying CIS, the cognitive ability was tested by ORT-OLT. After that, while orally administering glutamine for 1 week (45 mg glutamine/kg bodyweight/day), a change in cognitive ability was examined from Day 4 (i.e., ORT-OLT were carried out from Day 4 to Day 7).

NC(=O)CC[C@H](N)C(=O)O [glutamine]
width of CA1-SP (stratum pyramidale CA1) [1]: restored | level of active oxygen/nitrogen species (ROS/RNS) in hippocampus ([2]; hippocampal tissue): lower level | level of active oxygen/nitrogen species (ROS/RNS) in plasma ([2]; plasma): lower level | level of active oxygen/nitrogen species (ROS/RNS) in PFC ([2]; prefrontal cortex): lower level | expression amount of p67phox [3]: statistically significant decrement | cognitive ability in OLT [4]: restored to the level of stress-free control group | cognitive ability in ORT [4]: restored to the level of stress-free control group
